The source of these data is patent US8003649B2 (AstraZeneca AB, priority 2007, dated 2011).

A value given as a limit tells only on which side of the number the result lay.

The target in this assay is T1, Androgen Receptor (AR) (Homo sapiens, UniProt P10275, T878A).
T1 construct: cell based immuno-fluorescence assay using the LNCaP prostate epithelial cell line; endogenous in cells; host or cells: LNCaP clone FGC (ATCC CRL-1740)
T1 sequence (P10275 1-920 T878A): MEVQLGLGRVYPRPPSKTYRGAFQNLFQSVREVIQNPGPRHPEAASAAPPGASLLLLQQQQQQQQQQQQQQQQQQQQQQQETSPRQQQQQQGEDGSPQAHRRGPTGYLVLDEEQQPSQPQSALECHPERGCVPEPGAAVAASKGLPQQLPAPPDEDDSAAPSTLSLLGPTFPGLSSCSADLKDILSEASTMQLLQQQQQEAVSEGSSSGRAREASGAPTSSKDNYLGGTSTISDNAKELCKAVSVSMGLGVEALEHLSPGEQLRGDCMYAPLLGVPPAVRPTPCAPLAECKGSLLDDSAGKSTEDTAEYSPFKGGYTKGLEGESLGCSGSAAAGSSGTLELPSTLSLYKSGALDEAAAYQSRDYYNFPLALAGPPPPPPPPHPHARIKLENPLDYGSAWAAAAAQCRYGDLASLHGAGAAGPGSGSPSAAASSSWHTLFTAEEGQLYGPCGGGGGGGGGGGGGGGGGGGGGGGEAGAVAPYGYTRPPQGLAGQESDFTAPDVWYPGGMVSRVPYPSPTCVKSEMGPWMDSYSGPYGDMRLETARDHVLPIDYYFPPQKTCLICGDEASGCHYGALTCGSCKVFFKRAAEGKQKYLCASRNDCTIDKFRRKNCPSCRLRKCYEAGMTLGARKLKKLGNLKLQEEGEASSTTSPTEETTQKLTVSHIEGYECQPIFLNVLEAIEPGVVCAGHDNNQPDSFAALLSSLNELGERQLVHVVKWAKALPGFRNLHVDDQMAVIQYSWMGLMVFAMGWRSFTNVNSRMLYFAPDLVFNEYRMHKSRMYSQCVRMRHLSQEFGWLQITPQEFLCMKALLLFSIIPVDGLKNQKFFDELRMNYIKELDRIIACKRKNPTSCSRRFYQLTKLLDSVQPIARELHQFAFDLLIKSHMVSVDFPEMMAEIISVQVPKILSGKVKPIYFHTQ
In words: LNCaP Androgen Receptor Down-regulation Cell Assay (immunofluorescence end point). In kind it is cell-based. As to conditions: LNCaP prostate carcinoma cells, compound incubation 20-22 hours, 50% reduction of the AR signal; read-out: Androgen Receptor Down-regulation Assay (a) IC50/μM. The gist of the method: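 AR loss reported as IC50 from curve fits of fluorescence dose-response data, with AR immunostained and read by laser-scanning cytometry. Compound exposure was 20-22 h at 37° C in LNCaP cells grown in 5% charcoal-stripped FBS and plated overnight beforehand.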
For the compound `FC(F)(F)c1nnc2ccc(N3CC4CN(Cc5ccncc5)CC4C3)nn12` (stereo not drawn) [Example 193, 6-[2-(pyridin-4-ylmethyl)-1,3,3a,4,6,6a-hexahydropyrrolo[3,4-c]pyrrol-5-yl]-3-(trifluoromethyl)-[1,2,4]triazolo[4,3-b]pyridazine], the DC50 turned out to be 2 µM.
As for `O=C(c1ccc2[nH]cc(C3CCN(c4ccc5nnc(C(F)(F)F)n5n4)CC3)c2c1)N1CC[C@H](O)C1` [Example 505], the DC50 was over 19 µM.
With `Cc1cc(CNC(=O)c2cccc(OC3CCN(c4ccc5nnc(C(F)(F)F)n5n4)CC3)c2)no1` [Example 702], the DC50 was over 12 µM.
The result for `COCCNC(=O)c1cccc(OC2CCN(c3ccc4nnc(C(F)(F)F)n4n3)CC2)c1` [Example 689] reads 4.1 µM; that for `FC(F)c1nnc2ccc(N3CCN(Cc4c[nH]c5ccccc45)CC3)nn12` [Example 265], 3.8 µM; that for `FC(F)(F)c1nnc2ccc(N3CCCC(c4ccccc4)C3)nn12` (stereo not drawn) [Example 515, 6-(3-phenylpiperidin-1-yl)-3-(trifluoromethyl)[1,2,4]triazolo[4,3-b]pyridazine], 1.4 µM.
For `O=C(NCCN1CCOCC1)c1cccc(OC2CCN(c3ccc4nnc(C(F)(F)F)n4n3)CC2)c1` [Example 698], the DC50 turned out to be 5.6 µM.
The result for `N#Cc1ccc(CN2CC3CN(c4ccc5nnc(C(F)(F)F)n5n4)CC3C2)cc1` (stereo not drawn) [Example 205, 4-[[5-[3-(trifluoromethyl)-[1,2,4]triazolo[4,3-b]pyridazin-6-yl]-1,3,3a,4,6,6a-hexahydropyrrolo[3,4-c]pyrrol-2-yl]methyl]benzonitrile] reads 0.53 µM; that for `Nc1ccc(CN2CCN(c3ccc4nnc(C(F)(F)F)n4n3)CC2)cc1` [Example 212, 4-((4-(3-(trifluoromethyl)-[1,2,4]triazolo[4,3-b]pyridazin-6-yl)piperazin-1-yl)methyl)aniline], 3.7 µM; that for `Cc1ccc(CN2CCN(c3ccc4nnc(C(F)(F)F)n4n3)CC2)cc1` [Example 47, 6-[4-[(4-methylphenyl)methyl]piperazin-1-yl]-3-(trifluoromethyl)-[1,2,4]triazolo[4,3-b]pyridazine], 1.5 µM.
`Fc1cccc(CN2CCN(c3ccc4nnc(C(F)F)n4n3)CC2)c1Cl` [Example 822]: the DC50 worked out at 1.7 µM.
With `Fc1ccccc1CCN1CCN(c2ccc3nnc(C(F)(F)F)n3n2)CC1` [Example 229, 6-[4-[2-(2-fluorophenyl)ethyl]piperazin-1-yl]-3-(trifluoromethyl)[1,2,4]triazolo[4,3-b]pyridazine], the DC50 amounted to 1.9 µM.
To `C[C@H]1CN(Cc2cccnc2)CCN1c1ccc2nnc(C(F)(F)F)n2n1` [Example 593, 6-[(2S)-2-methyl-4-(pyridin-3-ylmethyl)piperazin-1-yl]-3-(trifluoromethyl)[1,2,4]triazolo[4,3-b]pyridazine] belongs 7.2 µM.
To `FC(F)(F)c1nnc2ccc(N3CCC(Oc4ncc(Cl)cn4)CC3)nn12` [Example 714] belongs over 9.9 µM; to `OC1(c2cccc(Cl)c2)CCN(c2ccc3nnc(C(F)(F)F)n3n2)CC1` [Example 313], 1.8 µM.
For `O=C(CCCN1CCCC1)Nc1cccc(C2CCN(c3ccc4nnc(C(F)(F)F)n4n3)CC2)c1` [Example 660], the DC50 was 0.63 µM.
In the case of `CN(Cc1ccc(F)cc1)C1CCN(c2ccc3nnc(C(F)(F)F)n3n2)CC1` [Example 407], the DC50 was 5.7 µM.
The result for `Fc1ccc(CCN2CCN(c3ccc4nnc(C(F)(F)F)n4n3)CC2)cc1` [Example 230] reads 2.1 µM; that for `FC(F)(F)c1nnc2ccc(N3CC[C@@H](Oc4cccnc4)C3)nn12` [Example 576, 6-[(3R)-3-(pyridin-3-yloxy)pyrrolidin-1-yl]-3-(trifluoromethyl)[1,2,4]triazolo[4,3-b]pyridazine], 5 µM.
For the compound `O=C(c1cccc(OC2CCN(c3ccc4nnc(C(F)(F)F)n4n3)CC2)c1)N1CC[C@@H](O)C1` [Example 691], the DC50 was over 28 µM.
`O=C(NCCN1CCCC1)c1ccc(C2CCN(c3ccc4nnc(C(F)(F)F)n4n3)CC2)cc1` [Example 631]: the DC50 was 1.1 µM.
To `FC(F)(F)c1cccc(CN2CCN(c3ccc4nnc(C(F)(F)F)n4c3)CC2)c1` [Example 185, 3-(trifluoromethyl)-6-[4-[[3-(trifluoromethyl)phenyl]methyl]piperazin-1-yl]-[1,2,4]triazolo[4,3-a]pyridine] belongs 0.68 µM; to `FC(F)(F)c1nnc2ccc(N3CCN(Cc4ccc5ccccc5n4)CC3)nn12` [Example 56, 2-[[4-[3-(trifluoromethyl)-[1,2,4]triazolo[4,3-b]pyridazin-6-yl]piperazin-1-yl]methyl]quinoline], 2.1 µM; to `Fc1cncc(CN2CC3CN(c4ccc5nnc(C(F)(F)F)n5n4)CC3C2)c1` (stereo not drawn) [Example 789], 2.1 µM.
For the compound `Fc1cccc(F)c1CN1CCN(c2ccc3nnc(C(F)(F)F)n3n2)CC1` [Example 384], the DC50 is 2.9 µM.
The result for `O=C(NCCN1CCCC1)c1cccc(OC2CCN(c3ccc4nnc(C(F)(F)F)n4n3)CC2)c1` [Example 686] reads 4.2 µM; that for `Fc1ccc(-c2nc(C3CCN(c4ccc5nnc(C(F)(F)F)n5n4)CC3)no2)cc1` [Example 300], 1 µM; that for `COCCNC(=O)c1ccc(OC2CCN(c3ccc4nnc(C(F)(F)F)n4n3)CC2)cc1` [Example 416], 2.7 µM.
To `FC(F)(F)c1ccccc1OC1CCN(c2ccc3nnc(C(F)(F)F)n3n2)CC1` [Example 653] belongs 1 µM; to `C=CCOc1ccc(CN2CCN(c3ccc4nnc(C(F)(F)F)n4n3)CC2)cc1` [Example 139, 6-[4-[(4-prop-2-enoxyphenyl)methyl]piperazin-1-yl]-3-(trifluoromethyl)-[1,2,4]triazolo[4,3-b]pyridazine], 2 µM; to `C[C@@H]1CN(Cc2ccc(F)c(F)c2)CCN1c1ccc2nnc(C(F)(F)F)n2n1` [Example 601], 2.2 µM.
To `CC(=O)Nc1ccc(CN2CCN(c3ccc4nnc(C(F)(F)F)n4n3)CC2)cc1` [Example 107, N-[4-[[4-[3-(trifluoromethyl)-[1,2,4]triazolo[4,3-b]pyridazin-6-yl]piperazin-1-yl]methyl]phenyl]acetamide] belongs 7.2 µM; to `CN(C)C(=O)c1ccc(N2CCN(c3ccc4nnc(C(F)(F)F)n4n3)CC2)cc1` [Example 746], 3.3 µM; to `FC(F)(F)c1nnc2ccc(N3CCN(Cc4csnn4)CC3)nn12` [Example 53, 6-[4-(thiadiazol-4-ylmethyl)piperazin-1-yl]-3-(trifluoromethyl)-[1,2,4]triazolo[4,3-b]pyridazine], 7.9 µM.
For `CCOC(=O)/C=C/c1ccc(CN2CCN(c3ccc4nnc(C(F)(F)F)n4n3)CC2)cc1` [Example 163, ethyl (E)-3-[4-[[4-[3-(trifluoromethyl)-[1,2,4]triazolo[4,3-b]pyridazin-6-yl]piperazin-1-yl]methyl]phenyl]prop-2-enoate], the DC50 was determined as 3.6 µM.
For the compound `Cc1cccc(CN2CCCN(c3ccc4nnc(C(F)(F)F)n4n3)CC2)c1` [Example 178, 6-[4-[(3-methylphenyl)methyl]-1,4-diazepan-1-yl]-3-(trifluoromethyl)-[1,2,4]triazolo[4,3-b]pyridazine], the DC50 was 0.88 µM.
Regarding `Fc1ccc2[nH]cc(CN3CCN(c4ccc5nnc(C(F)(F)F)n5n4)CC3)c2c1` [Example 283], the DC50 is 0.78 µM.
The result for `FC(F)(F)c1nnc2ccc(N3CCN(Cc4cccc5ccccc45)CC3)nn12` [Example 66, 6-[4-(naphthalen-1-ylmethyl)piperazin-1-yl]-3-(trifluoromethyl)-[1,2,4]triazolo[4,3-b]pyridazine] reads 0.33 µM.
For `Cn1cc(CN2CCN(c3ccc4nnc(C(F)(F)F)n4n3)CC2)c2ccccc21` [Example 71, 6-[4-[(1-methylindol-3-yl)methyl]piperazin-1-yl]-3-(trifluoromethyl)-[1,2,4]triazolo[4,3-b]pyridazine], the DC50 turned out to be 1.4 µM.
The result for `FC(F)(F)c1nnc2ccc(N3CCC(Oc4cccnc4Br)CC3)nn12` [Example 717] reads 2.9 µM.
To `O=S(=O)(c1cccc(F)c1)N1CCCN(c2ccc3nnc(C(F)(F)F)n3n2)CC1` [Example 456] belongs 21 µM; to `COc1ccc(CN2CCN(c3ccc4nnc(C(F)(F)F)n4n3)CC2)cc1` [Example 15, 6-[4-[(4-methoxyphenyl)methyl]piperazin-1-yl]-3-(trifluoromethyl)-[1,2,4]triazolo[4,3-b]pyridazine], 2.5 µM.
